In one data set the test system is APAP-induced ALF. Conditions: intravenous; cited from earlier work.
The test system of data set [1] is ALF mouse models. The experiment in a line: Histology score of H&E stained liver sections in ALF mouse models. Conditions: for liver damage, histopathological analysis: APAP-induced ALF model, inhibitor i.p. 1 hour after 500 mg/kg APAP. Format: in vivo, mice. Here is the method:
(§1) Mouse models—8 weeks old C57BL6 male mice were injected intraperitoneally with 500 mg/kg body mass acetaminophen (APAP) in PBS or 300 mg/kg of thioacetamide (TAA) in PBS, 20 hours prior to sample collection. To avoid known circadian effects, all injections were performed between 1 pm and 2 pm. Control mice were injected with vehicle (PBS). For antibiotic treatment, mice were given a cocktail of ampicillin (1 g/l), kanamycin (1 g/l), vancomycin (0.5 g/l) and metronidazole (1 g/l) in drinking water for two weeks. MyD88 and Trif double knockout mice were 8 weeks old, males on C57BL6 background^55. All experimental procedures involving mice were approved by the local IACUC.
Histology—Sample from the left lobe of the liver was fixed in 4% paraformaldehyde, embedded in paraffin, sectioned and stained with hematoxylin and eosin (H&E). Slides were scored by a blinded veterinary pathologist for necrosis and hemorrhage on a scale from 0 (healthy) to 5 (most severe).
(§2) MYC inhibition—MYC inhibitor KJ-Pyr-9 or vehicle control was injected intraperitoneally 2 hours following injection of APAP or PBS vehicle control. Briefly, 10 mg of KJ-Pyr-9 (Tocris, cat 5306) was dissolved in 1 ml of DMSO and then combined with Tween 80 and 5% dextrose 1:1:8 by volume. Mice were injected with 0.5 ml per 20 g, so the final dose of KJ-Pyr-9 was 25 mg per kilogram of body mass.
(§3) Inhibition of MAPK pathway proteins—The inhibitors listed in Table 1 hereinbelow were injected intraperitoneally 1 hour following injection of 500 mg/kg APAP or corresponding PBS vehicle. Briefly. The inhibitors were dissolved in 5% DMSO in PBS to a final injection volume of 400 μl for 20 g mouse. Control mice were injected with 5% DMSO in PBS vehicle.

Data set [2] has as its system ALF mouse models. The experiment in a line: Liver enzymes activity measurement (serum ALT and AST) in ALF mouse models. Conditions: for ALT activity in serum / AST activity in serum: APAP-induced ALF model, inhibitor i.p. 1 hour after 500 mg/kg APAP. Format: in vivo, mice. How it is done: as §1
MYC inhibition—MYC inhibitor KJ-Pyr-9 or vehicle control was injected intraperitoneally 2 hours following injection of APAP or PBS vehicle control. […] Mice were injected with 0.5 ml per 20 g, so the final dose of KJ-Pyr-9 was 25 mg per kilogram of body mass.
as §3

The test system of the next data set is Ly6C-positive monocytes. The experiment in a line: Measurement of monocyte infiltration by FACS in ALF mouse models. Format: in vivo, mice. Conditions: for monocyte infiltration: APAP-induced ALF model, inhibitor i.p. 1 hour after 500 mg/kg APAP. Here is the method: as §1
Measurement of monocyte infiltration—Livers harvested from mice were finely chopped with sterile scissors and digested with 4 ml of pre-warmed 0.4 mg/ml protease and 0.1 U/ml collagenase D (EBS buffer: 8 g/l NaCl, 0.4 g/l KCl, 88 mg/l NaH2PO4.H2O, 120 mg/l Na2HPO4.H2O, 2.38 g/l HEPES, 0.35 g/l NaHCO3, 0.42 g/l CaCl2) for 30 minutes at 37° C. while shaking Following, 10 ml of cold PBS was added and the suspension was filtered through a 100 μm mesh. To deplete hepatocytes, samples were centrifuged at 30 g for 5 minutes and the supernatant was transferred to new tubes. Cells were collected by centrifugation at 580 g. To lyse red blood cells, 1 ml of Gibco™ ACK Lysing Buffer was added and cells were incubated at room temperature for one minute. Subsequently, cold PBS was added and cells were collected by centrifugation at 580 g.
Receptors on the cells were first blocked with TruStain FcX anti-mouse CD16/32, then the cells were washed with FACS buffer (PBS without calcium and magnesium, 1% FCS), collected by centrifugation at 580 g and stained with CD45-PECy7 (Biolegend, 30F11, cat. 103114), F4/80-FITC (Serotec, Cl:A3-1, cat. G00018) and Ly6C-APC (Biolegend, HK14, cat. 128016) antibodies for 1 hour on ice. Finally, the cells were washed with FACS buffer, collected by centrifugation at 580 g, resuspended in FACS buffer, filtered through 40 μm mesh and measured on DB LSRFortessa. Data was analysed using FlowJo software.
as §2
Inhibition of MAPK pathway proteins—The inhibitors listed in Table 1 hereinbelow were injected intraperitoneally 1 hour following injection of 500 mg/kg APAP or corresponding PBS vehicle. Briefly. The inhibitors were dissolved in 5% DMSO in PBS to a final injection volume of 400 μl for 20 g mouse. […]

The subject of data set [3] is stellate, endothelial and Kupffer cells. The experiment in a line: Single cell RNA sequencing of liver cells. Conditions: for number of differentially expressed genes: pseudobulk counts. Format: in vivo, mice. How it is done: as §1
Following, liver was dissected, placed in cold EBS solution, shaken vigorously with forceps for separation of single cells, followed by filtration through a 100 μm mesh. Hepatocytes were depleted by centrifugation at 30 g for 5 minutes. Cells were then collected by centrifugation at 580 g and resuspended in cold PBS. To enrich for stellate cells, cells with retinoid fluorescence in the Pacific Blue channel were sorted using a BD FACSAria III. Following, stellate cells were mixed with unsorted cells, spun down, resuspended in PBS with 0.04% BSA and counted using Neubauer chamber.
10× library preparation and sequencing—Single cells were captured and processed using the 10× Genomics Chromium 3′ Single Cell RNA seq protocol according to the manufacturers' manual. Subsequently, RNA was sequenced using NextSeq® 500/550 High Output Kit v2 (Illumina cat no. 20024906).
as §2
Mapping: Single cell RNA sequencing data were demultiplexed, mapped to the GRCm38 mouse genome and UMIs were counted using the Cell Ranger Single-Cell Software Suite 2.1.1. Filtering and doublet removal: Cells with less than 100 detected transcripts and more than 10% mitochondrial reads were removed. Clustering analysis was used to identify populations of thrombocytes, erythrocytes, neutrophils and mast cells. Following, a second filtering was effected using 600 detected transcripts. […] The second step was necessary, as there were many low quality cells with low threshold. Following, doublets were identified by finding clusters of cells expressing gene expression patterns of two cell types at the same time. Marker sets used were Dcn, Colec11, Ecm1, Cxcl12, Sod3, Angptl6, Rgs5, Reln, Tmem56, Rbp1, G0s2, Rarres2, Acta2, Tagln for stellate cells; Gpihbp1, Aqp1, Clec4g, Dnase113, Fabp4, Ptprb, Kdr, Gpr182 for endothelial cells; Alb, Ttr, Ambp, Rbp4, Cyp2e1, Spp1 for hepatocytes; Cd3e, Cd3g, Cd3d, Lat, Thy1, Cxcr6, Nkg7, Cd4, Cd8b1, Klra4, Ncr1, Gzmb, Lck, Txk, Ms4a4b, Ccl5 for T cells; Cd79b, Cd79a, Ms4a1, Siglecg, Fcmr, Cd19, Fcer2a for B cells; Adgre1, Cd51, Clec4f, Timd4, Folr2, C1qa, C1qb, C1qc, Vsig4, Xcr1, Cd209a, Itgax, Siglech, Chil3, F13a1, S100a4, Lgals3, Gda, S100a9, Retnlg for macrophages, DCs and neutrophils; Alas2, Hbb-bt, Hbb-bs, Hba-a2, Hba-a1 for erythrocytes. Clustering—All cells from all 22 samples were first clustered using R package Seurat v2.3.4 FindClusters function^56. Genes that were present in less than 3 cells were removed and then highly variable genes were identified as having mean of non-zero values between 0.0125 and 3 and standard deviation higher than 0.5. Dimensionality reduction was effected with PCA and first 50 PCs were used for clustering.
As the liver population is very complex, it was decided to perform stepwise clustering. First, expression of Ecm1, Ptprc, Ptprb, Epcam, Msln and Alb in the obtained clusters was determined. […]

Data set [4] relates to ALF mouse models. The experiment in a line: Survival of APAP-administered mice. Format: in vivo. Conditions: n=15 per group. Here is the method: as §1, §2
[5] abbreviates: both ALF models (APAP, TAA), KJ-Pyr-9 25 mg/kg i.p.
[6] abbreviates: steady state, endothelial cells.

A value given as a limit tells only on which side of the number the result lay.

For the compound `CC(=O)N[C@@H](CS)C(=O)O` [N-acetylcysteine], in the data set with APAP-induced ALF, the “adverse effects including anaphylactic reaction” value is on record as ≤ 15 % of the cases and the “effectiveness of the intervention” value is listed as “only very partially effective”.
For `CC[C@@H]1[C@H](F)C(=O)N[C@@H]1COc1nccc2cc(C(N)=O)c(OC)cc12` [IRAK4 inhibitor, PF 06650833], the “liver damage, histopathological analysis” value in the data set with ALF mouse models [1] is recorded as “significantly reduced liver damage”. Further, in the data set on ALF mouse models [2], the “ALT activity in serum” value is listed as “significantly reduced” and the “AST activity in serum” value is “significantly reduced”. In addition, the monocyte infiltration entry with Ly6C-positive monocytes is recorded as “significant reduction”.
For `CN1C(=O)C(Cc2c[nH]c3ccccc23)NC1=S` (centres unmarked) [RIP1 inhibitor, Nec1], in the data set with ALF mouse models [2], the “ALT activity in serum” value is recorded as “significantly reduced” and the “AST activity in serum” value is recorded as “significantly reduced”.
Consider `C[S+]([O-])c1ccc(-c2nc(-c3ccncc3)c(-c3ccc(F)cc3)[nH]2)cc1` (centres unmarked) [p38 inhibitor, SB203580], for which the “liver damage, histopathological analysis” value in the data set with ALF mouse models [1] is listed as “significantly reduced liver damage”. For the same compound, in the data set on ALF mouse models [2], the “ALT activity in serum” value is “significantly reduced” and the “AST activity in serum” value is “significantly reduced”. In addition, the monocyte infiltration result in the data set on Ly6C-positive monocytes is on record as “significant reduction”.
As to `COc1cc(O)c2c(c1)/C=C/C[C@H](O)[C@H](O)C(=O)/C=C\C[C@H](C)OC2=O` [TAK1 inhibitor, 5Z-7-Oxozeaenol], the “liver damage, histopathological analysis” value with ALF mouse models [1] is listed as “significantly reduced liver damage”. Moreover, the “AST activity in serum” value with ALF mouse models [2] is recorded as “significantly reduced”. Further, in the data set with Ly6C-positive monocytes, the monocyte infiltration entry is “significant reduction”.
For `NC(=O)c1ccc(-c2cc(-c3ccc([N+](=O)[O-])cc3)nc(-c3ccco3)c2)cc1` [MYCi, KJ-Pyr-9], the “hepatic damage, tissue histology by H&E staining” value in the data set with ALF mouse models [1] (during ALF (FIGS. 4F-G APAP, 19C-D TAA), KJ-Pyr-9 25 mg/kg i.p.) is recorded as “reduced hepatic damage”. In addition, in the data set with ALF mouse models [2] (setting [5]), the “Serum ALT activity” value was “attenuated” and the “Serum AST activity” value was “attenuated”. Moreover, in data set [3] (ALF), the “expression of metallothionein 1 and 2 (Mt1 and Mt2)” value is given as “remained unaffected”; the neutrophil infiltration entry is “not affected”; the “total gene expression level” value was “lower total gene expression level”. Also, in data set [3] (ALF, Kupffer cells), the “expression of neutrophil attractant chemokine Cxcl2” value is “did not get downregulated”. The “expression of the 82 genes constituting the common activation signature” value in data set [3] (ALF, activated stellate, Kupffer and endothelial cell subsets) is “markedly attenuated”. In addition, in data set [3] (ALF, stellate cells), the “drop of median number of detected transcripts” value is about 4 times; the “upregulation of senescence and cell cycle arrest marker Cdkn1a (coding p21)” value is listed as “attenuated”. Moreover, the “median number of detected transcripts” value in data set [3] (ALF, stellate cells, 3500 without MYC inhibition) worked out at 945. In data set [3] (during ALF induction), the “activated populations (AAs, AAe, AAk)” value was “did not arise”. Also, in data set [3] (during ALF, activated resident populations), the “Map3k8 expression (coding for TPL2)” value is given as “strong induction”. Besides, the “infiltration of Ly6C-positive monocytes to the liver (single cell transcriptomic data)” value in data set [3] (either APAP- or TAA-induced ALF) was “near-total reduction”. Further, the “effect on the gene expression landscape” value in data set [3] (in the absence of liver failure) was “did not feature a notable effect”. In data set [3] (steady state, Kupffer cells), the differentially expressed genes entry was “downregulation of genes related to antigen processing and presentation”; the “number of differentially expressed genes” value is 94 genes. Besides, in data set [3] (setting [6]), the differentially expressed genes result is listed as “downregulation of genes of the AP1 family” and the “number of differentially expressed genes” value came to 5 genes. In data set [3] (steady state, stellate cells), the “gene ontology analysis of differentially expressed genes” value is “downregulation of genes coding for ribosome proteins and other components of the translation machinery”; the “number of differentially expressed genes” value was 148 genes. In addition, the mortality result in the data set with ALF mouse models [4] was “attenuated”. For the same compound, the “infiltration of Ly6C-positive monocytes (F4/80 and Ly6C double-positive cells within the immune CD45-positive population)” value with Ly6C-positive monocytes (ALF mice (FIGS. 4C APAP, 19A TAA), KJ-Pyr-9 25 mg/kg i.p. 2 hours after APAP) is on record as “dramatic reduction”.

The values are drawn from US20220362329A1, “TREATING ACUTE LIVER DISEASE WITH TLR-MIK INIHIBITORS” (Yeda Research and Development Co. Ltd., priority 2020, published 2022).
